Earlier results as cited in US20200230082A1, “TOPICAL ACETAMINOPHEN FORMULATIONS FOR ITCH RELIEF” (UNIVERSITY OF MIAMI, priority 2017, published 2020).
Where two headings read alike, the source gives them in different places.

- Solubility % (solvent: Ethanol): 37^1%
- Solubility % (solvent: PEG-400): 18.9^3%
- Solubility % (solvent: Propylene Glycol): 9.8^2%
- Solubility % (solvent: Water): 1.7^1%
Compound: CC(=O)Nc1ccc(O)cc1 [acetaminophen]
